Assay results reported in publication PMC9120017, “Inhibition mechanism of the chloride channel TMEM16A by the pore blocker 1PBC” (Nature Communications, 2022).
Several values for one entry are separate records, joined by “and”; a condition that tells them apart may be missing. Equal entries are not always repeated.

Target: T1, wild-type mouse TMEM16A (Mus musculus, UniProt Q8BHY3)
T1 construct: expressed in transfected cells; host or cells: HEK293T
T1 sequence (Q8BHY3 1-960): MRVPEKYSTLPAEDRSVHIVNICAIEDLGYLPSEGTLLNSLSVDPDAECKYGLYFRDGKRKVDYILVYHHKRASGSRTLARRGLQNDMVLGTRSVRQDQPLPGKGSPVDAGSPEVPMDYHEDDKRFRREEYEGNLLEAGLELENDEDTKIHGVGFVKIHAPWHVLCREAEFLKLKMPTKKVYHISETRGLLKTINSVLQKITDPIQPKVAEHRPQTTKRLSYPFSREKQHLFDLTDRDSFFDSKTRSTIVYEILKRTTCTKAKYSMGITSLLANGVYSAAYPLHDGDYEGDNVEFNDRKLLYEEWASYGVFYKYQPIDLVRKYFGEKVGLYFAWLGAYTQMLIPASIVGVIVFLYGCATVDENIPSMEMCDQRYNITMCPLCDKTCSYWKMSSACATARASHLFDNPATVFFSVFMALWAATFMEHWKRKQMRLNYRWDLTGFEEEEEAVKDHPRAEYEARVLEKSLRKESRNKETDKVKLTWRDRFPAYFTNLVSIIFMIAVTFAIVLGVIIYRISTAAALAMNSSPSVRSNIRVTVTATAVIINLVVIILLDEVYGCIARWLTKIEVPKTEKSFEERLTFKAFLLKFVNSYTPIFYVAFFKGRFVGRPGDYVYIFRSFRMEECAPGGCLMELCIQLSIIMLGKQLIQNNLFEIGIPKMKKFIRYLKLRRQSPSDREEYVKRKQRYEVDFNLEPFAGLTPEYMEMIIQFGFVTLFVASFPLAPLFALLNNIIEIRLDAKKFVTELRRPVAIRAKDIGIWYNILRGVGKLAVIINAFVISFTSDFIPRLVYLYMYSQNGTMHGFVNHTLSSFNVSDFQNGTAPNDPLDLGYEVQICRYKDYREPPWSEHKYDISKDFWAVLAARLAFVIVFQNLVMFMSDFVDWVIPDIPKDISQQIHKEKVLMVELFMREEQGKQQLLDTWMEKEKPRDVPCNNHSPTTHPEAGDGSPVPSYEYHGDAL
Experiment: Global fit of 1PBC inhibition profiles to an open-channel block mechanism
Assay type: cell-based
Excerpt: The inhibition profiles of 1PBC at different Ca^2+ concentrations were fitted to a mechanism assuming that the blocker preferentially binds to the open state. This was incorporated by adding a blocker binding step to the open state in a gating mechanism that we described previously[28] (Supplementary Fig. 9a). The matrix notation of this mechanism[73] is 4 Q=−k01−bk07v07^δb/2k0100000bk07v07^δb/2k10−k10−k12k12000000k21−k21−k23−k24k23k2400000k32−k32−k35v35^δCa/20k35v35^δCa/20000xk42v42^δCa/20−xk42v42^δCa/2−k45k4500000xk53v53^δCa/2k54−xk53v53^δCa/2−k54−k56v56^δCa/2k56v56^δCa/2000000xk65v65^δCa/2−xk65v65^δCa/20k70v70^δb/2000000−k70v70^δb/2 where x and b are the molar concentration of Ca^2+ and the blocker respectively, and the subscripts indicate the transition described by the rate constant k in s^−1, for example, k01 corresponds to the rate constant of the transition from state 0 to 1. δb and δCa are the fraction of membrane potential that modulates the corresponding transitions. […]
The equilibrium occupancy of states was calculated using[73],[74]7 P∞=P(0)(Vλ=0V^−1λ=0) where P(0) is the initial occupancy and V can be obtained from the Eigen decomposition of Q8 Q=VΛV^−1 and9 Λ=λ1⋱λnV=v11⋯vn1⋮⋱⋮v1n⋯vnn are the Eigenvalue and Eigenvector matrices respectively. The open probability calculated using Eq. 7 was used to compute the squared difference for each data point. […]

N#Cc1c(C(F)(F)F)cc(O)n2c1nc1ccccc12 [1PBC]
Apparent valence δb (fit at +80 and −80 mV): ~ 0.27 and 0.27 ± 0.025
Kd (zero mV, read-out: Kd 1PBC (open state)): ~3.6 µM and 3.6 µM
